{
  "source": "patent US20240076347A1",
  "about": "“METHODS FOR PREVENTING FUNGAL INFECTIONS” (Cidara Therapeutics, Inc., priority 2016, published 2024)",
  "key": {"[1]": {"tested_on": "Aspergillus fumigatus strain AF293", "experiment": "Murine model of pulmonary aspergillosis (Example 16), survival and lung burden", "assay_type": "in vivo", "conditions": "for Group Geometric mean / Log10 Group Geometric mean / Log10 reduction from vehicle control: terminal lung burden", "protocol": "Animal strain and housing. Mice used in these studies were supplied by Charles River (Margate UK) and were specific pathogen free. The strain of mice used was ICR (also known as CD1 Mice) which is a well characterized outbred murine strain. Male mice were 11-15 g on receipt and allowed to acclimatize for at least 7 days.\nImmunosuppression. Mice were immunosuppressed on Day −4 with 150 mg/kg cyclophosphamide administered intraperitoneally (IP), and on Day −1 with 150 mg/kg cyclophosphamide IP and 175 mg/kg cortisone acetate administered subcutaneously (SC). To prevent bacterial infection due to the immunosuppression mice were given once daily 50 mg/kg ceftazidime.\nPreparation of Organism and Infection. A. fumigatus strain AF293 inoculum was prepared from spore cultures grown on Sabouraud Dextrose agar (SAB) containing 50 μg/mL chloramphenicol (SABC) in vented tissue culture flasks. Following incubation for 7-10 days at 30° C., spore cultures were washed in sterile phosphate buffered saline (PBS) containing 0.05% Tween 80. Spore count was determined using a haemocytometer and spores were diluted in PBS to ˜6.9×10^6 CFU/mL. Inoculum concentration was confirmed by quantitative culture onto SABC agar.\nNeutropenic mice lungs were infected with 0.04 mL (0.02 mL/nare) of ˜4.17×10^6 CFU/mL (˜1.67×10^5 CFU/mouse) of A. fumigatus AF293 by intranasal (IN) instillation under temporary 2.5% isoflurane induced anesthesia.\nPreparation of Test Articles. Micafungin (Mycamine, Astellas) was provided as a 50 mg vial (Lot 02323002, expiry 08/2017) and was prepared as per manufacturer's instructions by adding 5 mL saline for injection (SFI) directly into the vial to make up a 10 mg/mL stock solution. This solution was then diluted further in SFI to a working concentration of 0.5 mg/mL. […] It was prepared fresh once and stored at 4° C. until required.\nPosaconazole (Noxafil 40 mg/mL oral suspension, Merck Sharp & Dohme Limited) was provided as a 40 mg/mL oral suspension (Lot N00801, expiry 04/2019). This suspension was then diluted further in water for infection (WFI) to a working concentration of 0.2 and 1 mg/mL. The suspension was administered orally (PO) at 10 mL/kg for 2 and 10 mg/kg doses respectively, was prepared fresh once and stored at 4° C. until required.\nTest article CD101 stock was prepared at 6 mg/mL in 10% DMSO/1% Tween 20 diluent. A clear non particulate solution was obtained following gentle mixing. […] All doses were administered IP at 10 mL/kg. The study doses were kept at 4° C. until required.\nTreatment. For this study, treatments were initiated on Day 1 pre infection according to treatment groups outlined in Table 22. A total of 36 mice (6/treatment group) were used in the study.\nEndpoints. The primary endpoint for this study was survival within agreed ethical limits (>20% weight loss, severe hypothermia <34° C., inability to reach food or drink, severe hunching). Mice were monitored by daily weight measurements with observations as frequently as clinical condition required.\nMice presenting with severe clinical deterioration were humanely euthanized using an overdose of pentobarbitone administered by IP injection following clinical assessment and the time of death was recorded. Animal carcasses were stored at −20° C. before quantitative assessment of burden.\nTen days post infection all surviving animals were weighed and had their clinical condition assessed prior to being euthanized. Final survival numbers were recorded and analysed as described below and carcasses frozen at −20° C. prior to further processing.\nLung burden. A secondary endpoint for the study was terminal lung tissue burden. Immediately following confirmation of death, carcasses were frozen at −20° C. prior to tissue dissection and processing. The frozen carcasses were thawed at room temperature, the lungs removed and placed into pre-weighed bead-beating tubes containing 2 mL of PBS and subjected to mechanical disruption. […]"}, "A. fumigatus AF293": {"tested_on": "A. fumigatus AF293", "experiment": "Pulmonary aspergillosis in neutropenic ICR mice (Examples 14, 15), prophylaxis, survival", "assay_type": "in vivo, Aspergillus fumigatus", "protocol": "Pulmonary aspergillosis: ICR mice (10/grp) were made neutropenic by cyclophosphamide on Day −4 (150 mg/kg), and CPM/cortisone on Day −1 (150/175 mg/kg). Intranasal infection with A. fumigatus AF293 (10^5 CFU/mouse) on Day 0. Prophylaxis CD101 as a single dose (IP; 5, 10, 20 mg/kg) or posaconazole (PO; 2 and 10 mg/kg) 1 day prior to infection. Survival monitored for 10 days.\nPulmonary aspergillosis: ICR mice (10/grp) were made neutropenic by cyclophosphamide on Day −4 (150 mg/kg), and cyclophosphamide/cortisone was given on Day −1 (150/175 mg/kg). Intranasal challenge with A. fumigatus AF293 (10^5 CFU/mouse) was initiated on Day 0 and prophylaxis with CD101 as a single dose (IP; 5, 10, 20 mg/kg) or posaconazole (PO; 2 and 10 mg/kg) was started 1 day prior to infection. Survival was monitored for 10 days."}},
  "note": "Where “and” joins values, the source holds several entries; their conditions need not be identical. Identical values can stand only once. Entries after “also recorded” stand apart in the source; their conditions may differ.",
  "data": [
    {"smiles": "CC[C@@H]([C@H](C)O)n1ncn(-c2ccc(N3CCN(c4ccc(OC[C@@H]5CO[C@@](Cn6cncn6)(c6ccc(F)cc6F)C5)cc4)CC3)cc2)c1=O", "note": "[Posaconazole, posaconazole]", "values": [
      {"measurement": "Mean Survival", "setting": "[1]; 2 mg/kg PO once, Day −1", "result": 77.5, "unit": "h"},
      {"measurement": "Median Survival", "setting": "[1]; 2 mg/kg PO once, Day −1", "result": 69.0, "unit": "h"},
      {"measurement": "survival time post infection, range", "setting": "[1]; 2 mg/kg PO once, Day −1", "result": "69 to 114", "unit": "h"},
      {"measurement": "survival vs vehicle (conclusion)", "setting": "[1]; 2 mg/kg once one day pre-infection", "result": "did not show any improvement in survival"},
      {"measurement": "Mean Survival", "setting": "[1]; 10 mg/kg PO once, Day −1", "result": "212 h and 211.5 h"},
      {"measurement": "Median Survival", "setting": "[1]; 10 mg/kg PO once, Day −1", "result": "could not be estimated; also recorded: cannot estimate"},
      {"measurement": "survival time post infection, range", "setting": "[1]; 10 mg/kg PO once, Day −1", "result": "69 to 240", "unit": "h"},
      {"measurement": "mice that survived to the end of the study", "setting": "[1]; 10 mg/kg PO once, Day −1, 6 mice per group, 10 days", "result": 5, "unit": "mice"},
      {"measurement": "mice surviving to the end of the study", "setting": "[1]; 10 mg/kg once 1 day pre-infection", "result": "> 80", "unit": "%"},
      {"measurement": "Group Geometric mean", "setting": "[1]; 2 mg/kg PO Day −1", "result": "1.14 × 10^4 CFU/g"},
      {"measurement": "Log10 Group Geometric mean", "setting": "[1]; 2 mg/kg PO Day −1", "result": 4.06, "unit": "CFU/g"},
      {"measurement": "Log10 reduction from vehicle control", "setting": "[1]; 2 mg/kg PO Day −1", "result": 0.11, "unit": "CFU/g"},
      {"measurement": "Group Geometric mean", "setting": "[1]; 10 mg/kg PO Day −1", "result": "2.75 × 10^3 CFU/g"},
      {"measurement": "Log10 Group Geometric mean", "setting": "[1]; 10 mg/kg PO Day −1", "result": 3.44, "unit": "CFU/g"},
      {"measurement": "Log10 reduction from vehicle control", "setting": "[1]; 10 mg/kg PO Day −1", "result": 0.73, "unit": "CFU/g"},
      {"measurement": "survival rate", "setting": "A. fumigatus AF293; 2 mg/kg PO one day prior to infection, 10 days", "result": "no survivors"},
      {"measurement": "survival rate", "setting": "A. fumigatus AF293; 10 mg/kg PO one day prior to infection, vs control", "result": "statistically-significant increase in survival rate relative to control"}
    ]}
  ]
}
